Test results from patent US8466200B2, “2-adamantylurea derivatives as selective 11β-HSD1 inhibitors” (Merck Patent GmbH, priority 2005, dated 2013).
Like-named read-outs stand apart in the source and are kept apart here. Values belong to the compound of their own block, whether it stands above or below them.

Columns and labels:
human 11-beta HSD1 = target: T1, human 11-beta HSD1 (Homo sapiens, UniProt P28845); assay: 11 beta-HSD1 enzyme assay (HTRF cortisol), human recombinant enzyme; format: biochemical; conditions: read-out: Inhibition of human 11-beta HSD1 IC50
T1 construct: made in house; host or cells: E. coli
T1 sequence (P28845 whole entry): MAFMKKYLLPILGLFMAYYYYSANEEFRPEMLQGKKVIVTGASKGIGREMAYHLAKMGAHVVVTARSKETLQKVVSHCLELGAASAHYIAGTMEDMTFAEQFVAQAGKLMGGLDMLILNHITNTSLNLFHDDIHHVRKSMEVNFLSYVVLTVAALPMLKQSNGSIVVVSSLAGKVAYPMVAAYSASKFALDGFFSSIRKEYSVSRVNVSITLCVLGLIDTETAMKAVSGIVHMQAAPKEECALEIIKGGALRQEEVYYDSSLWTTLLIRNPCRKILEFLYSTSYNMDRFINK
Method: (§1) Human recombinant 11 beta-hydroxysteroid dehydrogenase type 1 (11 beta-HSD1) and type 2 (11 beta-HSD2) enzymes were expressed in E. coli. Rat and mice liver microsome fractions were purchased from TEBU.
(§2) The 11 beta-HSD1 enzyme assay was carried out in 96 well microtiter plates in a total volume of 100 μl containing 30 mM HEPES buffer, pH 7,4 with 1 mM EDTA, substrate mixture cortisone/NADPH (200 nM/200 μM), G-6-P (1 mM) and inhibitors in serial dilutions. Reactions were initiated by addition of 10 μl 11beta-HSD1 (3 μg) from E. coli, either as microsome fractions from rat or mice liver (2.5 μg). Following mixing, the plates were shaken for 150 minutes at 37° C. The reactions were terminated with 100 Acid-18beta glycyrrhetinic stop solution. Determinations of cortisol levels in 11 beta-HSD1 preparations were monitored by HTRF (HTRF cortisol assay from C is bio international).

rat 11-beta HSD1 = rat 11-beta HSD1 (Rattus norvegicus, UniProt P16232); assay: 11 beta-HSD1 enzyme assay, rat liver microsome fractions; format: biochemical; conditions: read-out: Inhibition of rat 11-beta HSD1 IC50
Chain of rat 11-beta HSD1 (P16232 whole entry): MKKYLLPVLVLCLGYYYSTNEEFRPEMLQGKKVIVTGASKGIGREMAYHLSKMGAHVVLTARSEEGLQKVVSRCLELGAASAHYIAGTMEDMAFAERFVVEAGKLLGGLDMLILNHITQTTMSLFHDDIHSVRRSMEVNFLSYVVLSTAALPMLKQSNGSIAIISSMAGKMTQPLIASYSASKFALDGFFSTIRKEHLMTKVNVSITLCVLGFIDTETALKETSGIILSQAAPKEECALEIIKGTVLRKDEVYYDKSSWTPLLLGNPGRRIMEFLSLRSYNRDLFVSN
Method: as §1, §2

mouse 11-beta HSD1 = mouse 11-beta HSD1 (Mus musculus, UniProt P50172); assay: 11 beta-HSD1 enzyme assay, mice liver microsome fractions
Chain of mouse 11-beta HSD1 (P50172 whole entry): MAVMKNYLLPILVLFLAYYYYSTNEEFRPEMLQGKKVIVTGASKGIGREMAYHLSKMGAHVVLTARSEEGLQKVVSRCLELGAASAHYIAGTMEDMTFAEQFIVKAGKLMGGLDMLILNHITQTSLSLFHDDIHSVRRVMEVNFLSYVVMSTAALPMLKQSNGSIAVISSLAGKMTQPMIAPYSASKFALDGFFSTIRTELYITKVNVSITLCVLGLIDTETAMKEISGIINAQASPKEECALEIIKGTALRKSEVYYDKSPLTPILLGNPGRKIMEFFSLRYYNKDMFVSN
Method: as §1, §2

human 11-beta HSD2 = target: T2, human 11-beta HSD2 (Homo sapiens, UniProt P80365); assay: 11 beta-HSD2 enzyme assay, human recombinant enzyme; format: biochemical; conditions: selectivity table, Example 10; read-out: Inhibition of human 11-beta HSD2 IC50
T2 construct: made in house; host or cells: E. coli
T2 sequence (P80365 1-405): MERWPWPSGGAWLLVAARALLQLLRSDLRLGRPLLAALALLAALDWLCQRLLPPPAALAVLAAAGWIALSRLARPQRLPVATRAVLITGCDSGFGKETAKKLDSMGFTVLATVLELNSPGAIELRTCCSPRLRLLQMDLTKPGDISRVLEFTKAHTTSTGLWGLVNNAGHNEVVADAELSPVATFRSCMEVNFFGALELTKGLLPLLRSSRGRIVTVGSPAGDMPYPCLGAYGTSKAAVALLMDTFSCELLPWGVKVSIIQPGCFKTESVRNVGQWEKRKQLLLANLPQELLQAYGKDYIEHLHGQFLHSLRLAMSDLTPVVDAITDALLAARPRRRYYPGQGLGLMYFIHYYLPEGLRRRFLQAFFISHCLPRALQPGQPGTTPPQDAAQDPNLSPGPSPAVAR
Excerpt: This assay was similarly applied to 11beta-HSD2, whereby cortisol, NAD, and carbenoxolon were used as the substrate, cofactor and stopping agent, respectively.

[1] = recombinant enzyme from E. coli

Compound: COc1ccc(NC(=O)NC2C3CC4CC(C3)CC2C4)c(C)c1 (centres unmarked) [Ex 1, 1-Adamantan-2-yl-3-(4-methoxy-2-methyl-phenyl)-urea]
IC50 (human 11-beta HSD1; [1]): 15 nM
IC50 (rat 11-beta HSD1): 190 nM
melting point: 186 °C
IC50 (mouse 11-beta HSD1): 97 nM

Compound: Cc1cc(O)ccc1NC(=O)NC1C2CC3CC(C2)CC1C3 (centres unmarked) [Ex 7, 1-Adamantan-2-yl-3-(4-hydroxy-2-methyl-phenyl)-urea]
melting point: 212 to 214 °C

Compound: C[C@@H](NC(=O)NC1C2CC3CC(C2)CC1C3)c1ccccc1 (some centres unmarked) [drawing 15]
IC50 (human 11-beta HSD1; selectivity table, Example 10): 16 nM
IC50 (human 11-beta HSD2): > 10000 nM

Compound: Cc1c(NC(=O)NC2C3CC4CC(C3)CC2C4)cccc1C(=O)O (centres unmarked) [Ex 6, 3-(3-Adamantan-2-yl-ureido)-2-methyl-benzoic acid]
IC50 (human 11-beta HSD1; [1]): 550 nM

Compound: Cc1cc(OCCN2CCCCC2)ccc1NC(=O)NC1C2CC3CC(C2)CC1C3 (centres unmarked) [Ex 8, 1-Adamantan-2-yl-3-(2-methyl-4-(2-piperidin-1-yl-ethoxyl)phenyl)-urea]
IC50 (rat 11-beta HSD1): 1460 nM
IC50 (mouse 11-beta HSD1; read-out: Inhibition of mouse 11-beta HSD1 IC50, mice liver microsome fractions): 1240 nM

Compound: COc1ccc(NC(=O)NC2C3CC4CC(C3)CC2C4)c(C)c1 (centres unmarked) [drawing 13]
IC50 (human 11-beta HSD1; selectivity table, Example 10): 12 nM
IC50 (human 11-beta HSD2): > 10000 nM

Compound: O=C(NC1CCCC1)NC1C2CC3CC(C2)CC1C3 (centres unmarked) [drawing 14]
IC50 (human 11-beta HSD1; selectivity table, Example 10): 370 nM
IC50 (human 11-beta HSD2): > 10000 nM

Further lines, results first:

IC50 (human 11-beta HSD1; [1]): 670 nM
Compound: O=C(Nc1cc(Cl)nc(Cl)c1)NC1C2CC3CC(C2)CC1C3 (centres unmarked) [Ex 1-26, 1-Adamantan-2-yl-3-(2,6-dichloro-pyridin-4-yl)-urea]

IC50 (human 11-beta HSD1; [1]): 740 nM
Compound: Cc1cccc(CNC(=O)NC2C3CC4CC(C3)CC2C4)c1 (centres unmarked) [Ex 1-34, 1-Adamantan-2-yl-3-(3-methyl-benzyl)-urea]

IC50 (human 11-beta HSD1; [1]): 2100 nM
IC50 (mouse 11-beta HSD1): 3440 nM
Compound: O=C(NCc1ccco1)NC1C2CC3CC(C2)CC1C3 (centres unmarked) [Ex 1-44, 1-Adamantan-2-yl-3-furan-2-ylmethyl-urea]

IC50 (human 11-beta HSD1; [1]): 340 nM
Compound: O=C(Nc1ccccc1C(F)(F)F)NC1C2CC3CC(C2)CC1C3 (centres unmarked) [Ex 1-3, 1-Adamantan-2-yl-3-(2-trifluoromethyl-phenyl)-urea]

IC50 (human 11-beta HSD1; [1]): 57 nM
Compound: O=C(Nc1ccc2ccccc2c1)NC1C2CC3CC(C2)CC1C3 (centres unmarked) [Ex 1-23, 1-Adamantan-2-yl-3-naphthalen-2-yl-urea]

IC50 (human 11-beta HSD1; [1]): 370 nM
IC50 (rat 11-beta HSD1): 47 nM
IC50 (mouse 11-beta HSD1): 355 nM
Compound: O=C(NC1CCCC1)NC1C2CC3CC(C2)CC1C3 (centres unmarked) [Ex 1-39, 1-Adamantan-2-yl-3-cyclopentyl-urea]

IC50 (human 11-beta HSD1; [1]): 43 nM
Compound: O=C(NCCc1cccs1)NC1C2CC3CC(C2)CC1C3 (centres unmarked) [Ex 1-16, 1-Adamantan-2-yl-3-(2-thiophen-2-yl-ethyl)-urea]

IC50 (human 11-beta HSD1; [1]): 430 nM
IC50 (rat 11-beta HSD1): 8 nM
IC50 (mouse 11-beta HSD1): 440 nM
Compound: O=C(NCCc1ccccc1)NC1C2CC3CC(C2)CC1C3 (centres unmarked) [Ex 1-12, 1-Adamantan-2-yl-3-phenethyl-urea]

IC50 (human 11-beta HSD1; [1]): 16 nM
Compound: C[C@@H](NC(=O)NC1C2CC3CC(C2)CC1C3)c1ccccc1 (stereo partly drawn) [Ex 1-61, 1-Adamantan-2-yl-3-((R)-1-phenyl-ethyl)-urea]

IC50 (human 11-beta HSD1; [1]): 67 nM
Compound: CCc1cccc(NC(=O)NC2C3CC4CC(C3)CC2C4)c1 (centres unmarked) [Ex 1-20, 1-Adamantan-2-yl-3-(3-ethyl-phenyl)-urea]

IC50 (human 11-beta HSD1; [1]): 270 nM
Compound: COc1cc(NC(=O)NC2C3CC4CC(C3)CC2C4)cc(OC)c1 (centres unmarked) [Ex 1-7, 1-Adamantan-2-yl-3-(3,5-dimethoxy-phenyl)-urea]

IC50 (human 11-beta HSD1; [1]): 720 nM
IC50 (rat 11-beta HSD1): 1320 nM
Compound: O=C(NC1C2CC3CC(C2)CC1C3)N1CCCC1 (centres unmarked) [Ex 3-3, Pyrrolidine-1-carboxylic acid adamantan-2-ylamide]
